Measurements: patent US20050209157A1, “Short bioactive peptides and methods for their use” (priority 2001, published 2005)
≈ marks a conversion by molar mass, not a printed value. No end group written: not given here.

Experiments:
[1] = system: Pseudomonas aeruginosa ATCC 9027; assay: Antimicrobial assay I, MIC by OD measurement; assay type: cell-based; settings: 37° C. for 24 hours, absorbance 620 nm
Source text: (§1) The data for the following antimicrobial assay of the peptides have been obtained by making OD measurements in in vitro cell culture experiments with and without added peptide. The protocol used is as follows.
(§2) Cell lines included Staphylococcus aureus ATCC 6538 or 25923, Pseudomonas aeruginosa ATCC 9027 or 27853. Medium used were Antibiotic Medium 3 (Difco), Antibiotic Medium 2 (Difco), and 0.85% saline. Controls used were physiological saline, and gentamycin at 50, 25, 10, 5, 1, and 0.1 ppm.
(§3) Absorbance was read at 620 nm after shaking to resuspend cells.
(§4) Staph6538 is Staphylococcus aureus ATCC accession number 6538; paerug9027 is Pseudomonas aeruginosa ATCC accession number 9027, yeast is Saccharomyces cerevisiae.

[2] = system: Staphylococcus aureus ATCC 6538; assay: Antimicrobial assay I, MIC by OD measurement; assay type: cell-based; settings: 37° C. for 24 hours, absorbance 620 nm
Source text: as §1, §2, §3, §4

[3] = system: yeast (Saccharomyces cerevisiae); assay: Antimicrobial assay I, yeast assay in RPMI 1640; assay type: cell-based; settings: RPMI 1640 media
Protocol: as §1, §3
The yeast assay was performed in RPMI 1640 media (pH 7.0 at 25° C.).
as §4

WI38 = settings: MTT, 24 hours with peptide; normal fibroblast line
SW480 = assay: Anti-cancer assay, MTT, LD50; assay type: cell-based; settings: SW480 colon adenocarcinoma line, 24 hours with peptide
Source text: (§5) Numbers are LD50 values (μg/mL).

PC3 = assay: Anti-cancer assay, MTT, LD50; assay type: cell-based; settings: 24 hours with peptide, prostate adenocarcinoma
Source text: as §5

H1299 = assay: Anti-cancer assay, MTT, LD50; assay type: cell-based; settings: 24 hours with peptide, lung large cell carcinoma
Source text: as §5

MCF7 = assay: Anti-cancer assay, MTT, LD50; assay type: cell-based; settings: MCF7 breast adenocarcinoma line, MTT, 24 hours with peptide
Source text: as §5

HeLaS3 = assay: Anti-cancer assay, MTT, LD50; assay type: cell-based; settings: 24 hours with peptide, cervical carcinoma
Source text: as §5

BMKC = assay: Anti-cancer assay, MTT, LD50; assay type: cell-based; settings: BMKC cloned melanoma line, 24 hours with peptide
Source text: as §5

in vitro [4] = settings: human, WI38 normal lung fibroblast cells, LD50 WI38, WI38 normal lung fibroblast line, MTT, 24 hours with peptide
in vitro [5] = assay type: cell-based, human; settings: human, human red blood cells, pH 7, hemolytic assay, concentration at 50% hemolysis, 1 hour at 37° C.; read-out: LD50
Protocol: This hemolytic assay is based upon that presented in Journal of Peptide Research 53: 82-90 (1999). […] All procedures were performed according to safety protocols pertaining to the handling and disposal of human body fluids.
Red blood cells (RBCs) were washed three times with PBS (35 mM phosphate buffer 0.15 M NaCl, pH 7.0). RBCs suspended in PBS (0.4% (v/v); about 10 ml per 15 peptides) were prepared. Suspensions (100 μl) were aliquoted to each sample and control tube. Serially diluted peptide solutions (100 μl) were pipetted into the sample tubes. Negative control tubes contained 100 μl PBS; positive control tubes contained 100 μl 1% Triton-X100 detergent. All tubes were incubated for 1 hour at 37° C. The tubes were removed from the incubator and centrifuged at 1000 g for 5 minutes. Supernatant (100 μl) was pipetted to a 96-well polyvinyl chloride plate. The absorbance at 414 nm (A414) was measured, and used to calculate the percent hemolysis according to the following formula. [formula]

| Molecule | paerug9027 (MIC) [1] | staph6538 (MIC) [2] | yeast (MIC or MFC) [3] | WI38 LD50 (WI38) [µg/mL] | LD50 SW480 (SW480) | PC3 LD50 (PC3) | H1299 LD50 (H1299) | LD50 MCF7 (MCF7) [µg/mL] | HeLaS3 LD50 (HeLaS3) | LD50 BMKC (BMKC) | CC50 at 24 h (in vitro [4]) [µg/mL] | HC50 at 1 h (in vitro [5]) [µg/mL] |
| --- | --- | --- | --- | --- | --- | --- | --- | --- | --- | --- | --- | --- |
| KWKLFKKALKKLKKALKKAL-NH2 [P104] | 10 µg/mL | 10 µg/mL | 200 µg/mL | 24 | 54 µg/mL | 18 µg/mL | 52 µg/mL | 11 | 130 µg/mL | 100 µg/mL | 24 | 70 |
| FAKLLAKLAK-NH2 [P123] | 200 µg/mL | 50 µg/mL | 100 µg/mL | 600 | > (> indicates greater than 1000) | > (> indicates greater than 1000) | > (> indicates greater than 1000) | 615 | 940 µg/mL | 635 µg/mL | 600 | 1000 |
| FALALKLAKKAL-NH2 [P167, FALALKLAKKAL-NH2] | 25 µg/mL | 10 µg/mL | 100 µg/mL | 260 | 360 µg/mL | 320 µg/mL | 300 µg/mL | 230 | 325 µg/mL | 240 µg/mL | 260 | 200 |
| CC(C)C[C@H](NC(=O)[C@H](C)NC(=O)[C@H](CCCCN)NC(=O)[C@H](CC(C)C)NC(=O)[C@H](C)NC(=O)[C@H](CC(C)C)NC(=O)[C@H](C)NC(=O)[C@H](CCCCN)NC(=O)[C@H](CC(C)C)NC(=O)[C@H](C)NC(=O)[C@H](CC(C)C)NC(=O)[C@H](C)NC(=O)[C@H](CC(C)C)NC(=O)[C@H](CCCCN)NC(=O)[C@H](C)NC(=O)[C@H](CC(C)C)NC(=O)[C@H](CCCCN)NC(=O)[C@H](CCCCN)NC(=O)[C@H](C)NC(=O)[C@H](CC(C)C)NC(=O)[C@H](CCCCN)NC(=O)[C@H](CCCCN)NC(=O)[C@H](CC(C)C)NC(=O)[C@H](CCCCN)NC(=O)[C@H](CCCCN)NC(=O)[C@H](C)NC(=O)[C@H](CC(C)C)NC(=O)[C@H](CCCCN)NC(=O)[C@H](CCCCN)NC(=O)[C@H](C)NC(=O)[C@@H](N)Cc1ccccc1)C(N)=O [P98, reference compound] | > (> indicates greater than 200 μg/mL) | > (> indicates greater than 200 μg/mL) | > (> indicates greater than 200 μg/mL) | 47 | 125 µg/mL | 52 µg/mL | 53 µg/mL | 96 | 175 µg/mL | 94 µg/mL | 47 (≈ 14 µM) | 60 |
| FAKLWAKLAFGKGIGKVGKKLL-NH2 [P135] | 10 µg/mL | 15 µg/mL | 50 µg/mL | 110 | 80 µg/mL | 310 µg/mL | 115 µg/mL | 54 | 215 µg/mL | 155 µg/mL | 110 | 900 |
| LKKLAKLALAF-NH2 [P179] | 50 µg/mL | 50 µg/mL | 100 µg/mL | 540 | > (> indicates greater than 1000) | > (> indicates greater than 1000) | > (> indicates greater than 1000) | 555 | > (> indicates greater than 1000) | 920 µg/mL | 540 | 850 |
| VAKLLAKLAKKLL-NH2 [P48] | 5 µg/mL | 5 µg/mL | 25 µg/mL | 41 | 47 µg/mL | 32 µg/mL | 17 µg/mL | 23 | 44 µg/mL | 43 µg/mL | 41 | 200 |
| FAKKLAKKLKKLAKKLAKKWKL-NH2 [P70] | > (> indicates greater than 200 μg/mL) | 10 µg/mL | 100 µg/mL | 34 | 11 µg/mL | 82 µg/mL | 63 µg/mL | 44 | 28 µg/mL | 94 µg/mL | 34 | 80 |
| VAKLLAKLAKKVL-NH2 [P154] | 100 µg/mL | 100 µg/mL | 50 µg/mL | 600 | 750 µg/mL | 640 µg/mL | 400 µg/mL | 315 | > (> indicates greater than 1000) | 330 µg/mL | 600 | 450 |
| FAKLLAKLAKKGL-NH2 [P152] | 50 µg/mL | 100 µg/mL | 100 µg/mL | 620 | 740 µg/mL | > (> indicates greater than 1000) | 410 µg/mL | 430 | > (> indicates greater than 1000) | > (> indicates greater than 1000) | 620 | 880 |
